In brackets after ≈: the same amount, converted by molar mass.
Each compound was assayed on HSV-II, SAV strain (assay: Inhibition of cytopathic effects of Vero cells caused by herpes virus type II). Details: Human alphaherpesvirus 2; Vero cells, CPE 48 hours, Reed-Muench; read-out: IC50 Against HSV-II.
Format: cell-based
Source text: Vero cells (kidney cells of African green monkey) are used as viral hosts to test the inhibition degree of the samples to the cytopathic effects of Vero cells caused by herpes virus type I and type II.
Vero cells (kidney cells of African green monkey) are used as viral hosts to test the inhibition degree of the samples to cytopathic effects of the Vero cell caused by herpes virus type I and type II.
1. Virus strains: HSV-I, VR733 strain, and HSV-II, SAV strain, which both are provided by ATCC.
2. Sample treatment: the sample is dissolved in DMSO at an appropriate concentration before use, and diluted with the culture medium 3 times at a total of 8 dilutions for test.
3. Positive control drug: acyclovir (ACV) produced by the Hubei Ke Yi pharmaceutical factory.

SMILES	IC50 [µg/mL]
O=C(c1ccc(O)c(O)c1O)c1ccc(O)c(O)c1O [2,3,4,2′,3′,4′-hexahydroxybenzophenone]	10.8 (≈ 39 µM)
O=C(c1ccccc1)c1ccc(O)c(O)c1O [2,3,4-trihydroxybenzophenone]	28.7 (≈ 125 µM)
O=C(c1ccc(O)cc1O)c1ccc(O)cc1O [2,4,2′,4′-tetrahydroxybenzophenone]	28.7 (≈ 117 µM)

Reference: patent publication US10716769B2 (GUANGZHOU JTREAT BIOSCI. LTD., priority 2015, dated 2020)
